Key:
[1] = system: CAKI-1; experiment: panel of 60 human tumor cell lines, growth inhibition (Renal Cancer); conditions: Homo sapiens; for GI50: CAKI-1; for CC50: CAKI-1, read-out: LC50; for IC (TGI): CAKI-1, read-out: TGI
[2] = system: SW-620; experiment: panel of 60 human tumor cell lines, growth inhibition (Colon Cancer); conditions: Homo sapiens; for GI50: SW-620, SW-620; for CC50: SW-620, read-out: LC50; for IC (TGI): SW-620, read-out: TGI
[3] = system: SNB-19; experiment: panel of 60 human tumor cell lines, growth inhibition (CNS Cancer); conditions: Homo sapiens; for GI50: SNB-19; for CC50: SNB-19, read-out: LC50; for IC (TGI): SNB-19, read-out: TGI
[4] = system: HCT-116; experiment: panel of 60 human tumor cell lines, growth inhibition (Colon Cancer); conditions: Homo sapiens; for GI50: HCT-116, HCT-116; for CC50: HCT-116, read-out: LC50; for IC (TGI): HCT-116, read-out: TGI
[5] = system: SF-268; experiment: panel of 60 human tumor cell lines, growth inhibition (CNS Cancer); conditions: Homo sapiens; for GI50: SF-268; for CC50: SF-268, read-out: LC50; for IC (TGI): SF-268, read-out: TGI
[6] = system: MCF7; experiment: panel of 60 human tumor cell lines, growth inhibition (Breast Cancer); conditions: Homo sapiens; for GI50: MCF7, MCF7; for CC50: MCF7, read-out: LC50; for IC (TGI): MCF7, read-out: TGI
[7] = system: UO-31; experiment: panel of 60 human tumor cell lines, growth inhibition (Renal Cancer); conditions: Homo sapiens; for GI50: UO-31; for CC50: UO-31, read-out: LC50; for IC (TGI): UO-31, read-out: TGI
[8] = system: 786-0; experiment: as above; conditions: Homo sapiens; for GI50: 786-0; for CC50: 786-0, read-out: LC50; for IC (TGI): 786-0, read-out: TGI
[9] = system: A498; experiment: as above; conditions: Homo sapiens; for GI50: A498; for CC50: A498, read-out: LC50; for IC (TGI): A498, read-out: TGI
[10] = system: IGROV1; experiment: panel of 60 human tumor cell lines, growth inhibition (Ovarian Cancer); conditions: Homo sapiens; for GI50: IGROV-1; for CC50: IGROV-1, read-out: LC50
[11] = system: NCI/ADR-RES; experiment: as above; conditions: Homo sapiens; for CC50: read-out: LC50; for IC (TGI): read-out: TGI
[12] = system: SR; experiment: panel of 60 human tumor cell lines, growth inhibition (Leukemia); conditions: Homo sapiens; for CC50: read-out: LC50; for IC (TGI): read-out: TGI
[13] = system: TK-10; experiment: panel of 60 human tumor cell lines, growth inhibition (Renal Cancer); conditions: Homo sapiens; for GI50: TK-10, TK-10; for CC50: TK-10, read-out: LC50; for IC (TGI): TK-10, read-out: TGI
[14] = system: SNB-75; experiment: panel of 60 human tumor cell lines, growth inhibition (CNS Cancer); conditions: Homo sapiens; for GI50: SNB-75; for CC50: SNB-75, read-out: LC50; for IC (TGI): SNB-75, read-out: TGI
[15] = system: MDA-MB-468; experiment: panel of 60 human tumor cell lines, growth inhibition (Breast Cancer); conditions: Homo sapiens; for GI50: MDA-MB-468; for CC50: MDA-MB-468, read-out: LC50; for IC (TGI): MDA-MB-468, read-out: TGI
[16] = system: T-47D; experiment: as above; conditions: Homo sapiens, T47D; for CC50: read-out: LC50; for IC (TGI): read-out: TGI
[17] = system: HCC-2998; experiment: panel of 60 human tumor cell lines, growth inhibition (Colon Cancer); conditions: Homo sapiens; for GI50: HCC 2998; for CC50: HCC 2998, read-out: LC50; for IC (TGI): HCC 2998, read-out: TGI
[18] = system: HS 578T; experiment: panel of 60 human tumor cell lines, growth inhibition (Breast Cancer); conditions: Homo sapiens, Hs-578T; for CC50: read-out: LC50; for IC (TGI): read-out: TGI
[19] = system: MOLT-4; experiment: panel of 60 human tumor cell lines, growth inhibition (Leukemia); conditions: Homo sapiens; for GI50: MOLT-4; for CC50: MOLT-4, read-out: LC50; for IC (TGI): MOLT-4, read-out: TGI

Work on `C=C1C(=O)O[C@H]2[C@H]1CC/C(COC(=S)n1ccnc1)=C\CC[C@@]1(C)O[C@@H]21` [JVM 66] yielded a GI50 [1] of 12.6 µM, a CC50 [1] of 73.8 µM and an IC (TGI) [1] of 30.5 µM. It also gave a GI50 ([2]; NCI five dose) of 4.86 µM, a CC50 [2] of 78.3 µM and an IC (TGI) [2] of 21.7 µM. For the same molecule, the GI50 [3] was 54.3 µM, the CC50 [3] was over 100 µM and the IC (TGI) [3] was over 100 µM. The GI50 ([4]; NCI five dose) was 2.47 µM, the CC50 [4] was 33 µM and the IC (TGI) [4] was 7.03 µM. The GI50 [5] was 21.9 µM, the CC50 [5] was over 100 µM and the IC (TGI) [5] was 67.7 µM. For the same molecule, the GI50 ([6]; NCI five dose) was 4.19 µM, the CC50 [6] was 76.7 µM and the IC (TGI) [6] was 19.8 µM. For the same molecule, the GI50 [7] was 8.37 µM, the CC50 [7] was 58.1 µM and the IC (TGI) [7] was 23.4 µM. It also gave a GI50 [8] of 16.8 µM, a CC50 [8] of 85.7 µM and an IC (TGI) [8] of 37.9 µM. It also gave a GI50 [9] of 14.5 µM, a CC50 [9] of over 100 µM and an IC (TGI) [9] of 65.5 µM. It also gave a GI50 [10] of 9.04 µM, a CC50 [10] of over 100 µM and a GI50 [11] of 30.1 µM. For the same molecule, the CC50 [11] was over 100 µM, the IC (TGI) [11] was over 100 µM and the GI50 [12] was 6.17 µM. For the same molecule, the CC50 [12] was over 100 µM, the IC (TGI) [12] was 38.5 µM and the GI50 ([13]; NCI five dose) was 10.5 µM. The CC50 [13] was 58.2 µM, the IC (TGI) [13] was 24.8 µM and the GI50 [14] was 39.3 µM. It also gave a CC50 [14] of over 100 µM, an IC (TGI) [14] of over 106 µM and a GI50 [15] of 3.55 µM. It also gave a CC50 [15] of over 100 µM, an IC (TGI) [15] of 28.5 µM and a GI50 [16] of 12.9 µM. The CC50 [16] was over 100 µM, the IC (TGI) [16] was 42.4 µM and the GI50 [17] was 16.8 µM. For the same molecule, the CC50 [17] was 63.2 µM, the IC (TGI) [17] was 12.6 µM and the GI50 [18] was 26.5 µM. For the same molecule, the CC50 [18] was over 100 µM, the IC (TGI) [18] was over 100 µM and the GI50 [19] was 6.38 µM. It also gave a CC50 [19] of over 100 µM and an IC (TGI) [19] of 34.4 µM.

`C=C1C(=O)O[C@H]2[C@H]1CC/C(COC(=O)OCCCN1CCCCC1)=C\CC[C@@]1(C)O[C@@H]21` [JVM 2-26] was tested, and the GI50 [1] was 2.19 µM, the CC50 [1] was 34.5 µM and the IC (TGI) [1] was 11.9 µM. It also gave a GI50 [2] of 2.23 µM, a CC50 [2] of 37.3 µM and an IC (TGI) [2] of 8.74 µM. The GI50 [3] was 13.5 µM, the CC50 [3] was 56.3 µM and the IC (TGI) [3] was 27.5 µM. The GI50 [4] was 2.07 µM, the CC50 [4] was 23.9 µM and the IC (TGI) [4] was 6.42 µM. The GI50 [5] was 6.14 µM, the CC50 [5] was 53.2 µM and the IC (TGI) [5] was 20.6 µM. It also gave a GI50 [6] of 2.3 µM, a CC50 [6] of 50.8 µM and an IC (TGI) [6] of 10.7 µM. The GI50 [7] was 2.36 µM, the CC50 [7] was 46.3 µM and the IC (TGI) [7] was 12.5 µM. It also gave a GI50 [8] of 2.48 µM, a CC50 [8] of 37.3 µM and an IC (TGI) [8] of 11.1 µM. For the same molecule, the GI50 [9] was 10.1 µM, the CC50 [9] was 47 µM and the IC (TGI) [9] was 21.8 µM. The GI50 [10] was 13.2 µM, the CC50 [10] was 76.3 µM and the IC (TGI) ([10]; IGROV-1, read-out: TGI) was 31.7 µM. For the same molecule, the GI50 [11] was 17.2 µM, the CC50 [11] was over 100 µM and the IC (TGI) [11] was 45.8 µM. It also gave a GI50 [12] of 2.12 µM, a CC50 [12] of 83.9 µM and an IC (TGI) [12] of 10.2 µM. It also gave a GI50 [13] of 2.03 µM, a CC50 [13] of 25.5 µM and an IC (TGI) [13] of 6.82 µM. It also gave a GI50 [14] of 2.59 µM, a CC50 [14] of 40.6 µM and an IC (TGI) [14] of 16.5 µM. It also gave a GI50 [15] of 0.601 µM, a CC50 [15] of 10.5 µM and an IC (TGI) [15] of 2.78 µM. It also gave a GI50 [16] of 2.34 µM, a CC50 [16] of 45.9 µM and an IC (TGI) [16] of 8.12 µM. The GI50 [17] was 14.4 µM, the CC50 [17] was 60.1 µM and the IC (TGI) [17] was 19.4 µM. For the same molecule, the GI50 [18] was 4.96 µM, the CC50 [18] was over 100 µM and the IC (TGI) [18] was 26.8 µM. For the same molecule, the GI50 [19] was 4.07 µM, the CC50 [19] was 98.7 µM and the IC (TGI) [19] was 10.4 µM.
